Source: ChEMBL document CHEMBL1255194, “A stereo-controlled synthesis of 2,4-dimethyl-4-hydroxy-16-phenylhexadecanoic acid 1,4-lactone and its PPAR activities” (Bioorg Med Chem Lett, 2010)
One block for each compound: values may come before it.

Columns and labels:
[1] = molecular target: T1, Peroxisome proliferator-activated receptor alpha (Mus musculus, UniProt P23204); experiment: Transactivation of mouse PPARalpha expressed in CV1 cells; assay type: cell-based, CV-1
T1 sequence (P23204 whole entry): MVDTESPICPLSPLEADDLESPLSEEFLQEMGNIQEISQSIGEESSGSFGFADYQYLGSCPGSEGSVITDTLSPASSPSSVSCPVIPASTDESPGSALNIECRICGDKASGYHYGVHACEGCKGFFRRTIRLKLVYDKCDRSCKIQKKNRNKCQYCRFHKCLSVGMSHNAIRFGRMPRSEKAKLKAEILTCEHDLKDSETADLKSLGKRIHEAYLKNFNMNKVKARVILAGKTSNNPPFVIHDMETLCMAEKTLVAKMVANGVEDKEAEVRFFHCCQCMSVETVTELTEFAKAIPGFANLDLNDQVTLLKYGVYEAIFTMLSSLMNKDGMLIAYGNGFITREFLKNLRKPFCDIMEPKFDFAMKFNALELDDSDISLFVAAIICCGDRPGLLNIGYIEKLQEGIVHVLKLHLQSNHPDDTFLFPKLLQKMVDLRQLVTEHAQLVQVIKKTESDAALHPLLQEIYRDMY

[2] = molecular target: T2, Peroxisome proliferator-activated receptor delta (Mus musculus, UniProt P35396); experiment: Transactivation of mouse PPARdelta expressed in CV1 cells; assay type: cell-based, CV-1
T2 sequence (P35396 whole entry): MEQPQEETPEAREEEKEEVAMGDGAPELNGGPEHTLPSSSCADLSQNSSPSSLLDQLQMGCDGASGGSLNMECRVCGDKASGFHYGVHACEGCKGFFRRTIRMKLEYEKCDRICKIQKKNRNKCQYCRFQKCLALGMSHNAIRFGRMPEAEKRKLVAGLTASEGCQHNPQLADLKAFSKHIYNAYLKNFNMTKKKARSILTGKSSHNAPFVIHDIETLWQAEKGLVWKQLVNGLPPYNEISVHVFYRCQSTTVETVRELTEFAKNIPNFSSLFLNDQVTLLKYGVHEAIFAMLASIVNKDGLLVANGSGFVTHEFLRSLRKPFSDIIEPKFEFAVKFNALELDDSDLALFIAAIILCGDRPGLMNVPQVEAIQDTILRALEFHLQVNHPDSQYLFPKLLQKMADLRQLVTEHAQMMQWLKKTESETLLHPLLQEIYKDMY

[3] = molecular target: T3, Peroxisome proliferator-activated receptor gamma (Mus musculus, UniProt P37238); experiment: Transactivation of mouse PPARgamma expressed in CV1 cells at 100 uM; assay type: cell-based; conditions: cv-1
T3 sequence (P37238 whole entry): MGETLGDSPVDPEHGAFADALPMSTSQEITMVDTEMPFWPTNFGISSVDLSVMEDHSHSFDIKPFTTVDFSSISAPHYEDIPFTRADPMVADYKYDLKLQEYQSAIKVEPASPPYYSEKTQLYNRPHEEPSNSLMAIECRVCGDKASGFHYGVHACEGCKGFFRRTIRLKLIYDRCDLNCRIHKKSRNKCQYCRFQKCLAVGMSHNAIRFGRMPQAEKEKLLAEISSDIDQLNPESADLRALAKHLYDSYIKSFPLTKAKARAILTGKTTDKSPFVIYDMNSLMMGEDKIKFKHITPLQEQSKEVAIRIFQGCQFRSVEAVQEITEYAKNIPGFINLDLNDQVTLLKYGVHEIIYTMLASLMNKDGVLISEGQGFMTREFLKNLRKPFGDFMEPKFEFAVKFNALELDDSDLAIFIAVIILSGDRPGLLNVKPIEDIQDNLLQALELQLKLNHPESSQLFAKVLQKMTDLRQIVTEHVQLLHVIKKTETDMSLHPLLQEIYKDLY

Structure (SMILES): C[C@H]1C[C@](C)(CCCCCCCCCCCCc2ccccc2)OC1=O (stereo in doubt; (+)-1c)
EC50 [1]: 25 µM
EC50 [2]: 24 µM

Structure (SMILES): C[C@H]1C[C@@](C)(CCCCCCCCCCCCc2ccccc2)OC1=O (stereo in doubt; 1a)
EC50 [1]: 20 µM
EC50 ([2]; cv-1): 22 µM

Structure (SMILES): C[C@@H]1C[C@@](C)(CCCCCCCCCCCCc2ccccc2)OC1=O
EC50 [1]: 12 µM
EC50 [2]: 9 µM
EC50 [3]: Not Active

Structure (SMILES): C[C@H]1C[C@](C)(CCCCCCCCCCCCc2ccccc2)OC1=O (stereo in doubt)
EC50 [1]: 13 µM
EC50 [2]: 16 µM
EC50 [3]: Not Active

Continued by falling EC50 [1], values first:

EC50 [1]: 39 µM
EC50 [2]: 34 µM
EC50 [3]: Not Active
Structure (SMILES): C[C@@H]1C[C@](C)(CCCCCCCCCCCCc2ccccc2)OC1=O

EC50 [1]: 24 µM
EC50 [2]: 22 µM
EC50 [3]: Not Active
Structure (SMILES): C[C@H]1C[C@@](C)(CCCCCCCCCCCCc2ccccc2)OC1=O (stereo in doubt)
